Reference: patent US9957173B2, “Treatment of water” (BWA WATER ADDITIVES UK LIMITED, priority 2015, dated 2018)

How the values were obtained:
Desulfovibrio vulgaris = test: Log10 reduction in viable count of anaerobes after treatment of inoculated high-TDS aqueous system; format: cell-based; details: for Log10 Reduction Anaerobes: TDS 30,000 mg l^−1, 5 = complete kill
Description: (§1) Aqueous systems inoculated with anaerobe and facultative anaerobe culture and having a total dissolved solids (TDS) concentration of 30,000 mg l^−1 were prepared and treated with treatment agents comprising: (a) a phosphonium compound and (b) a nitro compound. The phosphonium compound (a) used was tri n-butyl n-tetradecyl phosphonium chloride (TTPC). The nitro compound (b) used was 2-hydroxymethyl-2-nitro-1,3-propanediol (THNM).
(§2) A suspension of Desulfovibrio vulgaris plus Enterobacter aerogenes bacteria containing from 1×10^5 to 1×10^6 cells/mL was prepared in sterile pH 8 phosphate buffer containing sodium chloride to give the desired total dissolved solids (TDS) concentration. Aliquots of this suspension were dosed with the indicated concentrations of the compounds (a) and (b) with the concentrations being measured as ppm. The mixtures were allowed to stand at room temperature. At the designated contact times, each mixture was sampled to determine the total number of viable cells of both Desulfovibrio vulgaris and Enterobacter aerogenes by serial 10-fold dilution into API RP 38 media vials and anaerobic acid producing media vials, respectively. The vials were incubated at 37° C. for 72 hours. Results were recorded as log10 reduction in the viable count versus the control.
(§3) The efficacy of the treatment agents was evaluated by measuring the Log10 Reduction of the anaerobic bacterium Desulfovibrio vulgaris and the facultative anaerobic bacterium Enterobacter aerogenes after contact times of 1 hour, 4 hours and 24 hours as detailed in Table 1. For TTPC the stated ppm value relates to the amount of TTPC added (active). For the THNM the stated ppm relates to the amount of THNM added (active).

Enterobacter aerogenes = test: Log10 reduction in viable count of facultative anaerobes after treatment of inoculated high-TDS aqueous system; format: cell-based; details: for Log10 Reduction Facultative Anaerobes: TDS 30,000 mg l^−1, 8 = complete kill
Description: as §1, §2, §3

[1] = Example 3: THNM 75 ppm active alone, contact time 1 hour
[2] = Example 4: THNM 150 ppm active alone, contact time 1 hour
[3] = Example 11: THNM 75 ppm active alone, contact time 4 hours
[4] = Example 12: THNM 150 ppm active alone, contact time 4 hours
[5] = Example 19: THNM 75 ppm active alone, contact time 24 hours
[6] = Example 20: THNM 150 ppm active alone, contact time 24 hours
[7] = THNM alone, even at concentrations of 150 ppm
[8] = Example 1: TTPC 3.125 ppm active alone, contact time 1 hour
[9] = Example 2: TTPC 6.25 ppm active alone, contact time 1 hour
[10] = Example 9: TTPC 3.125 ppm active alone, contact time 4 hours
[11] = Example 10: TTPC 6.25 ppm active alone, contact time 4 hours
[12] = Example 17: TTPC 3.125 ppm active alone, contact time 24 hours
[13] = Example 18: TTPC 6.25 ppm active alone, contact time 24 hours

## O=[N+]([O-])C(CO)(CO)CO [THNM, 2-hydroxymethyl-2-nitro-1,3-propanediol]
Desulfovibrio vulgaris; [1]
  Log10 Reduction Anaerobes: 0
Desulfovibrio vulgaris; [2]
  Log10 Reduction Anaerobes: 0
Desulfovibrio vulgaris; [3]
  Log10 Reduction Anaerobes: 0
Desulfovibrio vulgaris; [4]
  Log10 Reduction Anaerobes: 0
Desulfovibrio vulgaris; [5]
  Log10 Reduction Anaerobes: 0
Desulfovibrio vulgaris; [6]
  Log10 Reduction Anaerobes: 0
Desulfovibrio vulgaris; [7]
  effect on anaerobes: no affect
Enterobacter aerogenes; [1]
  Log10 Reduction Facultative Anaerobes: 0
Enterobacter aerogenes; [2]
  Log10 Reduction Facultative Anaerobes: 0
Enterobacter aerogenes; [3]
  Log10 Reduction Facultative Anaerobes: 0
Enterobacter aerogenes; [4]
  Log10 Reduction Facultative Anaerobes: 0
Enterobacter aerogenes; [5]
  Log10 Reduction Facultative Anaerobes: 0
Enterobacter aerogenes; [6]
  Log10 Reduction Facultative Anaerobes: 0
Enterobacter aerogenes; [7]
  effect on facultative anaerobes: no affect

## CCCCCCCCCCCCCC[P+](CCCC)(CCCC)CCCC.[Cl-] [TTPC, tri n-butyl n-tetradecyl phosphonium chloride]
Desulfovibrio vulgaris; [8]
  Log10 Reduction Anaerobes: 0
Desulfovibrio vulgaris; [9]
  Log10 Reduction Anaerobes: 1
Desulfovibrio vulgaris; [10]
  Log10 Reduction Anaerobes: 5
Desulfovibrio vulgaris; [11]
  Log10 Reduction Anaerobes: 5
Desulfovibrio vulgaris; [12]
  Log10 Reduction Anaerobes: 5
Desulfovibrio vulgaris; [13]
  Log10 Reduction Anaerobes: 5
Enterobacter aerogenes; [8]
  Log10 Reduction Facultative Anaerobes: 1
Enterobacter aerogenes; [9]
  Log10 Reduction Facultative Anaerobes: 3
Enterobacter aerogenes; [10]
  Log10 Reduction Facultative Anaerobes: 2
Enterobacter aerogenes; [11]
  Log10 Reduction Facultative Anaerobes: 4
Enterobacter aerogenes; [12]
  Log10 Reduction Facultative Anaerobes: 3
Enterobacter aerogenes; [13]
  Log10 Reduction Facultative Anaerobes: 5
